Data: ChEMBL document CHEMBL4814070 (Eur J Med Chem, 2021)
Active and inactive are the calls of the source. The rule behind the calls is not given here.

Key:
Cholinesterase [1] = target: T1, Cholinesterase (Homo sapiens, UniProt P06276)
Description: Inhibition of human plasmatic BuChE assessed as reduction in cholinesterase activity by Ellman's method

[2] = target: T2, Glutamate NMDA receptor; GRIN1/GRIN2A (Homo sapiens, UniProt Q05586+Q12879); assay: Inhibition of human GluN1a/GluN2A receptor expressed in HEK293 cells assessed as relative inhibition of glycine/glutamate-induced current at 100 uM measured at +40 mV holding potential by whole-cell patch clamp method; assay type: cell-based
Acetylcholinesterase = Acetylcholinesterase (Homo sapiens, UniProt P22303)
Description: Inhibition of human recombinant AChE assessed as reduction in cholinesterase activity using acetylthiocholine iodide as substrate by Ellman's method

[3] = target: T3, Glutamate NMDA receptor; GRIN1/GRIN2B (Homo sapiens, UniProt Q05586+Q13224)
Description: Inhibition of human GluN1a/GluN2B receptor expressed in HEK293 cells assessed as inhibition of glycine/glutamate-induced current measured at -60 mV holding potential by whole-cell patch clamp method

[4] = target: T2, Glutamate NMDA receptor; GRIN1/GRIN2A
Description: Inhibition of human GluN1a/GluN2A receptor expressed in HEK293 cells assessed as inhibition of glycine/glutamate-induced current measured at -60 mV holding potential by whole-cell patch clamp method

[5] = Drug uptake in ICR mouse brain at 5 mg/kg, ip measured after 15 mins by HPLC-MS analysis; assay type: ADME, organism-based; conditions: read-out: Drug uptake
[6] = Ratio of drug level in brain to plasma in ICR mouse at 5 mg/kg, ip measured after 15 mins by HPLC-MS analysis; assay type: ADME, organism-based; conditions: brain and plasma, read-out: BBR
[7] = Drug uptake in ICR mouse brain at 5 mg/kg, ip measured after 60 mins by HPLC-MS analysis; assay type: ADME, organism-based; conditions: read-out: Drug uptake
Rattus norvegicus [8] = assay: Reduction in total distance travelled in Wistar rat at 5 mg/kg, ip measured for 10 mins by open field test relative to control; assay type: functional, organism-based
[9] = Toxicity in Wistar rat assessed as prepulse inhibition of acoustic startle response at 1 to 5 mg/kg, ip measured for 10 mins by open field test relative to control; assay type: organism-based; conditions: in vivo, dose 1-5 mg/kg
[10] = Drug uptake in ICR mouse plasma at 5 mg/kg, ip measured after 15 mins by HPLC-MS analysis; assay type: ADME, organism-based
[11] = Drug uptake in ICR mouse plasma at 5 mg/kg, ip measured after 60 mins by HPLC-MS analysis; assay type: ADME, organism-based
Rattus norvegicus [12] = assay: Effect on spontaneous locomotory activity in Wistar rat at 1 mg/kg, ip measured for 10 mins by open field test; assay type: functional, organism-based
[13] = target: T3, Glutamate NMDA receptor; GRIN1/GRIN2B; remark: listed apart in the source
Description: Inhibition of human GluN1a/GluN2B receptor expressed in HEK293 cells assessed as relative inhibition of glycine/glutamate-induced current measured at +40 mV holding potential by whole-cell patch clamp method

[14] = target: T2, Glutamate NMDA receptor; GRIN1/GRIN2A; remark: listed apart in the source
Description: Inhibition of human GluN1a/GluN2A receptor expressed in HEK293 cells assessed as relative inhibition of glycine/glutamate-induced current measured at +40 mV holding potential by whole-cell patch clamp method

[15] = Toxicity in Wistar rat assessed as prepulse inhibition of acoustic startle response at 0.3 mg/kg, ip measured for 10 mins by open field test relative to control; assay type: organism-based; conditions: in vivo
[16] = Toxicity in Wistar rat assessed as hyperlocomotion at 5 mg/kg, ip measured for 10 mins by open field test relative to control; assay type: organism-based; conditions: in vivo
Rattus norvegicus [17] = assay: Effect on spontaneous locomotory activity in Wistar rat at 5 mg/kg, ip measured for 10 mins by open field test; assay type: functional, organism-based
Cholinesterase [18] = target: T1, Cholinesterase; assay: Inhibition of human plasmatic BuChE assessed as reduction in cholinesterase activity at 100 uM by Ellman's method

Acetylcholinesterase, sequence (P22303 whole entry): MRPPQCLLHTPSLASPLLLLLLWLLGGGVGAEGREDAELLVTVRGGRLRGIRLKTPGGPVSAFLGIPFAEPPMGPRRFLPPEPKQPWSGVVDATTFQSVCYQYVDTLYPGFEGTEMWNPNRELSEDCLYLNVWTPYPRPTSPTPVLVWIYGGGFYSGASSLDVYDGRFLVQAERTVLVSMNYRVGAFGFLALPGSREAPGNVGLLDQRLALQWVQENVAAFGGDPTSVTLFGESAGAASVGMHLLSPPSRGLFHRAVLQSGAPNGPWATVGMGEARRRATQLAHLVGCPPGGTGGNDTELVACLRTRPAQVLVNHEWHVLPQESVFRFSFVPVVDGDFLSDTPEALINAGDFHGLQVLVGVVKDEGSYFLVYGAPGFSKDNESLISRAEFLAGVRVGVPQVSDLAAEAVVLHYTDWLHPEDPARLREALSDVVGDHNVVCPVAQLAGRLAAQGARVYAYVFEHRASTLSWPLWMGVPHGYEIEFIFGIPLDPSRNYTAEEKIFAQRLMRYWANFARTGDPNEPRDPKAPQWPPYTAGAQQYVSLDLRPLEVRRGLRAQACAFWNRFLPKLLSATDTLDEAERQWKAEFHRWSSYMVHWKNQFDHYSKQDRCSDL
T3 sequence (Q13224 whole entry, looked up, other chains not shown): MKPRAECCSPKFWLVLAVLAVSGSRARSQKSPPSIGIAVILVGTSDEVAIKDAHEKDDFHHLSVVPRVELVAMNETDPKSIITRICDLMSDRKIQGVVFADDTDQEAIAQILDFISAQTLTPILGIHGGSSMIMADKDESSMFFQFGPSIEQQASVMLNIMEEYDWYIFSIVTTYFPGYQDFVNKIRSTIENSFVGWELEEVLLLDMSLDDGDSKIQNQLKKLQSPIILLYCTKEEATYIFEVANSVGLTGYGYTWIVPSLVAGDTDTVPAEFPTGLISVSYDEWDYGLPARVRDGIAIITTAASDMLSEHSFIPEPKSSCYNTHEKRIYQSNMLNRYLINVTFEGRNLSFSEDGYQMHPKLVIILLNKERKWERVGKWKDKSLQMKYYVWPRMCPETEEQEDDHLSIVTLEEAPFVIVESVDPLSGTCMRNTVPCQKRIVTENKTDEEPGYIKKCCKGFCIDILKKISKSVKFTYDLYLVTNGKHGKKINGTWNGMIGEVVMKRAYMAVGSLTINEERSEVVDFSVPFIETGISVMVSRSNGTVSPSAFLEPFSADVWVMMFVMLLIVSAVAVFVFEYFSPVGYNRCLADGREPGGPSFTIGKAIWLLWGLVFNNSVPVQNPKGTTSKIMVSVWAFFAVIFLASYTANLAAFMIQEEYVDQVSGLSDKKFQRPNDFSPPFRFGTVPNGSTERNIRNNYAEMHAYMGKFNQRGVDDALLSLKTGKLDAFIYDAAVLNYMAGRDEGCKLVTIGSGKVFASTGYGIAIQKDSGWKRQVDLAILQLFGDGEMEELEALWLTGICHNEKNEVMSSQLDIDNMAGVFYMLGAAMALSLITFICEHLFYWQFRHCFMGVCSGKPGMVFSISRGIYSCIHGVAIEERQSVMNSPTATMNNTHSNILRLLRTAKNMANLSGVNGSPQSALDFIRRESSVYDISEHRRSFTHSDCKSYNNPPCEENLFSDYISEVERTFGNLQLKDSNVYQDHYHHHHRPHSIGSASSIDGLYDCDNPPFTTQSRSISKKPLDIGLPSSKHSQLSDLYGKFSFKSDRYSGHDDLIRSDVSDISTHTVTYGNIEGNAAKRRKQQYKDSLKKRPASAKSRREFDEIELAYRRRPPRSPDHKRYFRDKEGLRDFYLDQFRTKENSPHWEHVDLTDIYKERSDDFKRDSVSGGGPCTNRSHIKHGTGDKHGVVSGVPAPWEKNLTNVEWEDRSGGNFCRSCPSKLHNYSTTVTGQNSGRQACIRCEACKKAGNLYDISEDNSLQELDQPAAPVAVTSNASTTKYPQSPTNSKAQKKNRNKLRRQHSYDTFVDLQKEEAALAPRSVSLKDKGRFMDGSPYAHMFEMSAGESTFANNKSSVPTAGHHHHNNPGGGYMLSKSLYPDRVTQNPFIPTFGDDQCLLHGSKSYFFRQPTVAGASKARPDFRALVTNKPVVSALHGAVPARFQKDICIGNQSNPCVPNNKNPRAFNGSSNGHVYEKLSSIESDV
T1 sequence (P06276 whole entry): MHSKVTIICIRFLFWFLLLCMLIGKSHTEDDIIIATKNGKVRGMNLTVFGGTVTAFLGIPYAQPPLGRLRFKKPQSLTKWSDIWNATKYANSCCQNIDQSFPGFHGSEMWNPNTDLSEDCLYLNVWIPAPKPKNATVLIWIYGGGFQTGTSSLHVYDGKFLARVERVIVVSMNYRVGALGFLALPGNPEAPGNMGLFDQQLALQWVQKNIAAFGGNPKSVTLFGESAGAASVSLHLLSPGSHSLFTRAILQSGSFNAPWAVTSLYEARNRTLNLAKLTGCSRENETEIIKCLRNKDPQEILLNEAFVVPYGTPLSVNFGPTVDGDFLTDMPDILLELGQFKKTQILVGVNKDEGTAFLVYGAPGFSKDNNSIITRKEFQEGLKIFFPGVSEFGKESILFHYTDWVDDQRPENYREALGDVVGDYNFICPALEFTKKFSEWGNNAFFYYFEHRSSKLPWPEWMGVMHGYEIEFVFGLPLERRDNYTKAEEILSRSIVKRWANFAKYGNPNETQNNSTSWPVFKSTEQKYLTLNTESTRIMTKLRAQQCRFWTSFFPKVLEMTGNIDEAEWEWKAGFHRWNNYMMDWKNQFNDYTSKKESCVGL

Nc1c2c(nc3ccc(F)cc13)CCCCC2
IC50 (Cholinesterase [1]): 0.569 µM
inhibition [2]: 38.5%
IC50 (Acetylcholinesterase): 0.624 µM
IC50 [3]: 19.8 µM
IC50 [4]: 14.5 µM

Cc1ccc2c(N)c3c(nc2c1)CCCC3.Cl
concentration at 0.25 h [5]: 731 nM
IC50 (Cholinesterase [1]): 2.9 µM
inhibition [2]: 51.3%
Kp at 0.25 h [6]: 56
IC50 (Acetylcholinesterase): 0.072 µM
IC50 [3]: 7.83 µM
concentration at 1 h [7]: 251 nM
Activity (Rattus norvegicus [8]): Active
IC50 [4]: 17 µM
Activity [9]: Non-Toxic
concentration at 0.25 h [10]: 1300 nM
concentration at 1 h [11]: 87 nM
Activity (Rattus norvegicus [12]): inactive
IC50 [13]: 41.8 µM
IC50 [14]: 98.6 µM

Cc1ccc2c(N)c3c(nc2c1)CCCCC3
IC50 (Cholinesterase [1]): 1 µM
inhibition [2]: 50%
IC50 (Acetylcholinesterase): 0.104 µM
IC50 [3]: 9.29 µM
IC50 [4]: 15.2 µM

Nc1c2c(nc3ccc(F)cc13)CCCC2
IC50 (Cholinesterase [1]): 0.751 µM
inhibition [2]: 41.9%
IC50 (Acetylcholinesterase): 0.978 µM
IC50 [3]: 21.3 µM
IC50 [4]: 15.4 µM

Cc1cccc2nc3c(c(N)c12)CCC3
IC50 (Cholinesterase [1]): 0.471 µM
inhibition [2]: 22%
IC50 (Acetylcholinesterase): 0.415 µM
IC50 [3]: 16.6 µM
IC50 [4]: 21.3 µM

Nc1c2c(nc3c(Cl)cc(Cl)cc13)CCCCC2
IC50 (Cholinesterase [1]): 23.8 µM
inhibition [2]: 38.5%
IC50 (Acetylcholinesterase): 9.04 µM
IC50 [3]: 37.9 µM
IC50 [4]: 20 µM

C[C@]12N[C@H](Cc3ccccc31)c1ccccc12 [DIZOCILPINE]
Activity [15]: Toxic

Nc1c2c(nc3c(Cl)cc(Cl)cc13)CCCC2
IC50 (Cholinesterase [1]): 14.8 µM
inhibition [2]: 38.2%
IC50 (Acetylcholinesterase): 4.34 µM
IC50 [3]: 37.1 µM
IC50 [4]: 24 µM

COc1ccc2nc3c(c(N)c2c1)CCCC3.Cl
concentration at 0.25 h [5]: 2320 nM
inhibition [2]: 77.6%
IC50 [3]: 7.24 µM
concentration at 1 h [7]: 326 nM
IC50 [4]: 4.7 µM
concentration at 0.25 h [10]: 1670 nM
concentration at 1 h [11]: 207 nM
IC50 [13]: 51 µM
IC50 [14]: 49.3 µM

Nc1c2c(nc3c(Cl)cc(Cl)cc13)CCC2
IC50 (Cholinesterase [1]): 17.9 µM
inhibition [2]: 33.5%
IC50 (Acetylcholinesterase): 13.1 µM
IC50 [3]: 21.4 µM
IC50 [4]: 14.6 µM

Cc1cccc2nc3c(c(N)c12)CCCC3
IC50 (Cholinesterase [1]): 0.495 µM
inhibition [2]: 40.5%
IC50 (Acetylcholinesterase): 0.125 µM
IC50 [3]: 14.2 µM
IC50 [4]: 18.5 µM

Cc1cccc2nc3c(c(N)c12)CCCCC3
IC50 (Cholinesterase [1]): 0.107 µM
inhibition [2]: 54.3%
IC50 (Acetylcholinesterase): 0.255 µM
IC50 [3]: 17.4 µM
IC50 [4]: 12.6 µM

COc1ccc2nc3c(c(N)c2c1)CCCCC3
IC50 (Cholinesterase [1]): 4.41 µM
inhibition [2]: 53.6%
IC50 (Acetylcholinesterase): 17.6 µM
IC50 [3]: 7.67 µM
IC50 [4]: 20 µM

Cc1ccc2nc3c(c(N)c2c1)CCCC3
IC50 (Cholinesterase [1]): 13.7 µM
inhibition [2]: 18.5%
IC50 (Acetylcholinesterase): 15.5 µM
IC50 [3]: 13.2 µM
IC50 [4]: 12.3 µM

Cc1ccc2nc3c(c(N)c2c1)CCC3
IC50 (Cholinesterase [1]): 23.7 µM
inhibition [2]: 30.8%
IC50 (Acetylcholinesterase): 10 µM
IC50 [3]: 19.8 µM
IC50 [4]: 20.5 µM

Cl.Nc1c2c(nc3ccc(Cl)cc13)CCC2
concentration at 0.25 h [5]: 1000 nM
IC50 (Cholinesterase [1]): 6.88 µM
inhibition [2]: 56.5%
Kp at 0.25 h [6]: 61
IC50 (Acetylcholinesterase): 1.58 µM
IC50 [3]: 8.69 µM
concentration at 1 h [7]: 173 nM
Activity (Rattus norvegicus [8]): Active
IC50 [4]: 21 µM
Activity [9]: Non-Toxic
concentration at 0.25 h [10]: 1660 nM
concentration at 1 h [11]: 389 nM
Activity (Rattus norvegicus [12]): inactive
IC50 [13]: 27.7 µM
IC50 [14]: 84.2 µM

Nc1c2c(nc3c(Br)cc(Br)cc13)CCCC2
IC50 (Cholinesterase [1]): 32 µM
inhibition [2]: 67.7%
IC50 (Acetylcholinesterase): 5.18 µM
IC50 [3]: 18.7 µM
IC50 [4]: 15.6 µM

Cc1ccc2c(N)c3c(nc2c1)CCC3
IC50 (Cholinesterase [1]): 8.44 µM
inhibition [2]: 53.6%
IC50 (Acetylcholinesterase): 0.347 µM
IC50 [3]: 15.6 µM
IC50 [4]: 7.68 µM

Cl.Nc1c2c(nc3ccc(Br)cc13)CCC2
concentration at 0.25 h [5]: 1180 nM
IC50 (Cholinesterase [1]): 16.9 µM
inhibition [2]: 75.3%
Kp at 0.25 h [6]: 47
IC50 (Acetylcholinesterase): 5.69 µM
IC50 [3]: 6.9 µM
concentration at 1 h [7]: 116 nM
Activity (Rattus norvegicus [8]): Active
IC50 [4]: 6.12 µM
Activity [9]: Non-Toxic
concentration at 0.25 h [10]: 2520 nM
concentration at 1 h [11]: 154 nM
Activity (Rattus norvegicus [12]): inactive
IC50 [13]: 23 µM
IC50 [14]: 51.3 µM

COc1ccc2nc3c(c(N)c2c1)CCC3
IC50 (Cholinesterase [1]): 10.6 µM
inhibition [2]: 66.1%
IC50 (Acetylcholinesterase): 8.22 µM
IC50 [3]: 14.6 µM
IC50 [4]: 4.16 µM
IC50 [13]: 88.9 µM
IC50 [14]: 66.8 µM

Nc1c2c(nc3ccc(F)cc13)CCC2
IC50 (Cholinesterase [1]): 1.91 µM
inhibition [2]: 28.7%
IC50 (Acetylcholinesterase): 0.662 µM
IC50 [3]: 30.3 µM
IC50 [4]: 28 µM

Cl.Nc1c2c(nc3cccc(Cl)c13)CCCCC2
concentration at 0.25 h [5]: 762 nM
IC50 (Cholinesterase [1]): 0.311 µM
inhibition [2]: 46.7%
Kp at 0.25 h [6]: 33
IC50 (Acetylcholinesterase): 223 µM
IC50 [3]: 22.1 µM
concentration at 1 h [7]: 32 nM
Activity [16]: Toxic
Activity (Rattus norvegicus [8]): Active
IC50 [4]: 7.29 µM
Activity [9]: Non-Toxic
concentration at 0.25 h [10]: 2290 nM
Activity (Rattus norvegicus [17]): inactive
concentration at 1 h [11]: 185 nM
Activity (Rattus norvegicus [12]): inactive
IC50 [13]: 146 µM
IC50 [14]: 112 µM

Nc1c2c(nc3ccc(Cl)cc13)CCCCC2
IC50 (Cholinesterase [1]): 10.3 µM
inhibition [2]: 43%
IC50 (Acetylcholinesterase): 8.6 µM
IC50 [3]: 12 µM
IC50 [4]: 20.2 µM

Cl.Nc1c2c(nc3ccc(Br)cc13)CCCC2
concentration at 0.25 h [5]: 1380 nM
IC50 (Cholinesterase [1]): 20.8 µM
inhibition [2]: 79.3%
Kp at 0.25 h [6]: 103
IC50 (Acetylcholinesterase): 4.79 µM
IC50 [3]: 7.8 µM
concentration at 1 h [7]: 218 nM
Activity (Rattus norvegicus [8]): Active
IC50 [4]: 6.58 µM
Activity [9]: Non-Toxic
concentration at 0.25 h [10]: 1330 nM
concentration at 1 h [11]: 170 nM
Activity (Rattus norvegicus [12]): inactive
IC50 [13]: 12.8 µM
IC50 [14]: 45.9 µM

Nc1c2c(nc3ccc(Cl)cc13)CCCC2
IC50 (Cholinesterase [1]): 6.72 µM
inhibition [2]: 47.5%
IC50 (Acetylcholinesterase): 1.94 µM
IC50 [3]: 9.82 µM
IC50 [4]: 14.8 µM

Nc1c2c(nc3cccc(Cl)c13)CCC2
inhibition [2]: 24.5%
IC50 [3]: 44.9 µM
IC50 [4]: 27 µM
inhibition (Cholinesterase [18]): 6%

Cc1ccc2nc3c(c(N)c2c1)CCCCC3
IC50 (Cholinesterase [1]): 10.6 µM
inhibition [2]: 40.1%
IC50 (Acetylcholinesterase): 22.5 µM
IC50 [3]: 16.6 µM
IC50 [4]: 27.1 µM

Nc1c2c(nc3ccc(Br)cc13)CCCCC2
IC50 (Cholinesterase [1]): 15.1 µM
inhibition [2]: 57.7%
IC50 (Acetylcholinesterase): 13.8 µM
IC50 [3]: 11.8 µM
IC50 [4]: 13.8 µM

Nc1c2c(nc3c(Br)cc(Br)cc13)CCC2
inhibition [2]: 55.7%
IC50 (Acetylcholinesterase): 15.1 µM
IC50 [3]: 17.1 µM
IC50 [4]: 10.2 µM
inhibition (Cholinesterase [18]): 34%

Nc1c2c(nc3c(Br)cc(Br)cc13)CCCCC2
IC50 (Cholinesterase [1]): 89.9 µM
inhibition [2]: 80.7%
IC50 (Acetylcholinesterase): 15.1 µM
IC50 [3]: 26.9 µM
IC50 [4]: 21.5 µM

Nc1c2c(nc3cccc(Cl)c13)CCCC2
IC50 (Cholinesterase [1]): 0.062 µM
inhibition [2]: 35%
IC50 (Acetylcholinesterase): 0.0334 µM
IC50 [3]: 23.7 µM
IC50 [4]: 19.6 µM
